Test results taken from EP1510211A1, “Pharmaceutical composition comprising N-retinyl-N-retinylidene Ethanolamine (A2E), isoforms of A2E or derivatives thereof” (Lynkeus Biotech GmbH, priority 2003, dated 2005).

Columns and labels:
MDCK-F1 cells = test: Apoptosis by Cell Death ELISA Plus Kit in MDCK-F1 cells; assay type: cell-based, canine
Experimental: (§1) RPE, ARPE-19, and MDCK-F1 cells are exposed to both PG (0, 10, 50 µg/ml) and A2E (0, 15 or 20 µM) for 4 hrs. […] RPE, ARPE-19, and MDCK-F1 cells are exposed to both PG (0, 10, 50 µg/ml) and iso-A2E (0, 15 or 20 µM) under the influence of light for 4 hrs. Then they are washed 3 times with PBS and the apoptosis is determined by Cell Death ELISA Plus Kit (Roche, Mannheim, Germany)
(§2) As an example, the apoptotic effect of A2E on porcine primary retinal pigment epithelial cells (RPE), and the cell lines ARPE-19 and MDCK-F1 cells is analyzed. • Example 1 describes the apoptotic effect of A2E on RPE, ARPE-19, and MDCK-F1 cells. The cells are exposed to 0, 15 and 30 µM of A2E for 2, 4, 6 and 22 hrs. […] Then they are washed 3 times with PBS and the apoptosis is determined by Cell Death ELISA Plus Kit (Roche, Mannheim, Germany). • Example 3 describes the apoptotic effect of A2E on RPE, ARPE-19, and MDCK-F1 cells after application of iso-A2E and exposure in light (photo-isomerization). […] Then they are washed 3 times with PBS and the apoptosis is determined by Cell Death ELISA Plus Kit (Roche, Mannheim, Germany) (see figure 4).
(§3) RPE and ARPE-19 cells: Primary porcine retinal pigment epithelial cells were isolated as previously described. […] Detection of apoptosis: Apoptosis was detected by Cell Death ELISA Plus Kit (Roche, Mannheim, Germany). […]

[1] = system: porcine primary retinal pigment epithelial cells (RPE); test: Apoptosis by Cell Death ELISA Plus Kit in primary RPE cells; assay type: cell-based
Experimental: as §1, §2, §3

ARPE-19 cells = test: Apoptosis by Cell Death ELISA Plus Kit in ARPE-19 cells; assay type: cell-based, human
Experimental: as §1, §2, §3

[2] = PG (0, 10, 50 µg/ml) together with A2E (0, 15 or 20 µM) for 4 hrs, Figure 3
[3] = PG (0, 10, 50 µg/ml) together with iso-A2E (0, 15 or 20 µM) under the influence of light for 4 hrs, Figure 4

L-A-Phosphatidyl-DL-Glycerol sodium [PG]
protective effect: protective effect regarding the apoptotic effect of A2E (MDCK-F1 cells; [2]) | protective effect regarding the apoptotic effect of photo-isomerization of iso-A2E (MDCK-F1 cells; [3]) | protective effect regarding the apoptotic effect of A2E [1, 2] | protective effect regarding the apoptotic effect of photo-isomerization of iso-A2E [1, 3] | protective effect regarding the apoptotic effect of A2E (ARPE-19 cells; [2]) | protective effect regarding the apoptotic effect of photo-isomerization of iso-A2E (ARPE-19 cells; [3])
